Experimental data: paper PMC10763615, “Identification and engineering of potent cyclic peptides with selective or promiscuous binding through biochemical profiling and bioinformatic data analysis” (RSC Chemical Biology, 2023)
Where two headings read alike, the source gives them in different places. Positions of bridges follow the written chain, without caps; N, C: chain ends. Residues, ends and D or L forms follow the SMILES beside them.

Columns and labels:
Type in all cases: binding
FGF-R4 ECD = biological target: T1, FGF-R4 ECD (Homo sapiens, UniProt P22455); experiment: single concentration BLI of crude peptides; settings: read-out: KD (4)
T1 construct: DNA constructs for the extracellular domain (ECD) of human FGF-; HPC4 (C); made in house; host or cells: HEK 293-6E
T1 sequence (P22455 22-369 limits assumed): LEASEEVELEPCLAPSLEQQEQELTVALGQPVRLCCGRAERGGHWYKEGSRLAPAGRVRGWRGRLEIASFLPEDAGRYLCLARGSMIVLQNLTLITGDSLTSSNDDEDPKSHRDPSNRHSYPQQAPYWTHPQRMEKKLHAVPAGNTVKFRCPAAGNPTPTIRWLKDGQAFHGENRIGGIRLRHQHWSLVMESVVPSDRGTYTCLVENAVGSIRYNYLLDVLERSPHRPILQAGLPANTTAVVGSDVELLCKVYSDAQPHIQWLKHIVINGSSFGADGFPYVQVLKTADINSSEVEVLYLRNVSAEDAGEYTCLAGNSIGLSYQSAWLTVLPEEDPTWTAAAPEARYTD
Procedure, shortened: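 Biotinylated FGF-R ECD on streptavidin biosensors was dipped into ~1 μM crude peptide in PBS pH7.4 with 0.05% Tween-20 and 0.01% BSA for association, then into buffer for dissociation, and followed by BLI. Fitted KD values were adjusted for peptide concentration measured by UPLC-CAD.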

FGF-R1C ECD = biological target: T2, FGF-R1C ECD (Homo sapiens, UniProt P11362); experiment: biochemical; set-up: DNA constructs for the extracellular domain (ECD) of human FGF-; HPC4 (C); made in house; host or cells: HEK 293-6E
T2 sequence (P11362 22-376 limits assumed): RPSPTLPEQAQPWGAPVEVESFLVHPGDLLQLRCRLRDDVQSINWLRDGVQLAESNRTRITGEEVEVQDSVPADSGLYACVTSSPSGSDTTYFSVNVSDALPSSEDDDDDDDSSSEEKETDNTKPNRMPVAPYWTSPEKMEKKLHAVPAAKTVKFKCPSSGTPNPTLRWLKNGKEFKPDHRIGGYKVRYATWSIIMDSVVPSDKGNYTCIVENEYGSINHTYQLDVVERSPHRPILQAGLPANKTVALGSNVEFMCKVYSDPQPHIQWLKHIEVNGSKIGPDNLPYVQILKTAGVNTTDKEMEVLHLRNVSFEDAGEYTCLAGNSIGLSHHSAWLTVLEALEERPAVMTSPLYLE
Procedure, shortened: (§1)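 Streptavidin biosensors carrying biotinylated FGF receptor ECD were immersed in peptide (~1 μM for crude single-point runs, a concentration series for purified peptides) and then in peptide-free buffer. KD was obtained by fitting the BLI association and dissociation curves.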

FGF-R3C ECD = biological target: T3, FGF-R3C ECD (Homo sapiens, UniProt P22607); experiment: biochemical; set-up: DNA constructs for the extracellular domain (ECD) of human FGF-; HPC4 (C); made in house; host or cells: HEK 293-6E
T3 sequence (P22607 23-375 limits assumed): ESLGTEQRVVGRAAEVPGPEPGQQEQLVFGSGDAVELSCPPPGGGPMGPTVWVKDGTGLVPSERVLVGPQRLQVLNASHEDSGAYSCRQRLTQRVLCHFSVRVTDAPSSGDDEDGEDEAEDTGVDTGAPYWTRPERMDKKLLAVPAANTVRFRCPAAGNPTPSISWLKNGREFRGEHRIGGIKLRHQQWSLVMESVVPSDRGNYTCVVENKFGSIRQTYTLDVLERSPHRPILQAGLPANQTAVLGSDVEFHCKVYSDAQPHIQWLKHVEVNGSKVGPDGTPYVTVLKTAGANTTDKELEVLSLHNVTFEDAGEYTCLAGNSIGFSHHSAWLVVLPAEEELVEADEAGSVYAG
Procedure, shortened: as §1

[1] = crude T18 selection 1 (1:1:1) peptides, single concentration BLI (Table S4)

Compound	Kd (FGF-R4 ECD; [1]) [µM]	Kd (FGF-R1C ECD) [µM]	Kd (FGF-R3C ECD) [µM]	Kd (FGF-R4 ECD; crude NNK peptides, single concentration BLI (Table S3)) [µM]
CC[C@H](C)[C@@H]1NC(=O)[C@H](Cc2c[nH]cn2)NC(=O)[C@H](CCCCN)NC(=O)[C@H](Cc2ccc(O)cc2)NC(=O)[C@@H](NC(=O)[C@H](CCSC)NC(C)=O)CSSC[C@@H](C(=O)NCC(=O)N[C@@H](CO)C(=O)NCC(=O)N[C@@H](CO)C(=O)N[C@@H](CCC(=O)O)C(=O)N[C@@H](CCC(=O)O)C(=O)NCC(=O)N[C@@H](CO)C(=O)NCC(=O)N[C@@H](CO)C(=O)N[C@@H](CC(=O)O)C(=O)N[C@@H](Cc2ccc(O)cc2)C(=O)N[C@@H](CCCCN)C(=O)N[C@@H](CC(=O)O)C(=O)N[C@@H](CC(=O)O)C(=O)N[C@@H](CC(=O)O)C(=O)N[C@@H](CC(=O)O)C(=O)N[C@@H](CCCCN)C(N)=O)NC(=O)[C@H](CC(C)C)NC(=O)[C@H](CCCCN)NC(=O)[C@H](CCC(N)=O)NC(=O)[C@H]([C@@H](C)CC)NC(=O)[C@H](CCCCN)NC(=O)[C@H](Cc2ccc(O)cc2)NC(=O)[C@H](Cc2c[nH]c3ccccc23)NC(=O)[C@H](CC(C)C)NC1=O (Ac-MCYKHILWYKIQKLCGSGSEEGSGSDYKDDDDK-NH2; disulfide 2-15)	0.001	0.033	> 10	
CSCC[C@H](NC(C)=O)C(=O)N[C@H]1CSSC[C@@H](C(=O)NCC(=O)N[C@@H](CO)C(=O)NCC(=O)N[C@@H](CO)C(=O)N[C@@H](CC(=O)O)C(=O)N[C@@H](Cc2ccc(O)cc2)C(=O)N[C@@H](CCCCN)C(=O)N[C@@H](CC(=O)O)C(=O)N[C@@H](CC(=O)O)C(=O)N[C@@H](CC(=O)O)C(=O)N[C@@H](CC(=O)O)C(=O)N[C@@H](CCCCN)C(N)=O)NC(=O)[C@H](Cc2c[nH]c3ccccc23)NC(=O)[C@H](CCC(N)=O)NC(=O)[C@H](CCCCN)NC(=O)[C@H](Cc2c[nH]c3ccccc23)NC(=O)[C@H](CC(C)C)NC(=O)[C@H](CC(C)C)NC(=O)[C@H](Cc2ccccc2)NC(=O)[C@H](CC(C)C)NC(=O)[C@H](CCCCN)NC(=O)[C@H](Cc2ccc(O)cc2)NC1=O (Ac-MCYKLFLLWKQWCGSGSDYKDDDDK-NH2; disulfide 2-13)		> 10	> 10	> 10
CC[C@H](C)[C@@H]1NC(=O)[C@H](CC(N)=O)NC(=O)[C@H](CCCCN)NC(=O)[C@H](Cc2ccc(O)cc2)NC(=O)[C@@H](NC(=O)[C@H](CCSC)NC(C)=O)CSSC[C@@H](C(=O)NCC(=O)N[C@@H](CO)C(=O)NCC(=O)N[C@@H](CO)C(=O)N[C@@H](CC(=O)O)C(=O)N[C@@H](Cc2ccc(O)cc2)C(=O)N[C@@H](CCCCN)C(=O)N[C@@H](CC(=O)O)C(=O)N[C@@H](CC(=O)O)C(=O)N[C@@H](CC(=O)O)C(=O)N[C@@H](CC(=O)O)C(=O)N[C@@H](CCCCN)C(N)=O)NC(=O)[C@H](Cc2ccccc2)NC(=O)[C@H](C(C)C)NC(=O)[C@H](CC(C)C)NC(=O)[C@H](C(C)C)NC(=O)CNC(=O)[C@H](CC(N)=O)NC(=O)[C@H](CC(=O)O)NC1=O (Ac-MCYKNIDNGVLVFCGSGSDYKDDDDK-NH2; disulfide 2-14)	0.014	> 10	> 10	
CSCC[C@H](NC(C)=O)C(=O)N[C@H]1CSSC[C@@H](C(=O)NCC(=O)N[C@@H](CO)C(=O)NCC(=O)N[C@@H](CO)C(=O)N[C@@H](CC(=O)O)C(=O)N[C@@H](Cc2ccc(O)cc2)C(=O)N[C@@H](CCCCN)C(=O)N[C@@H](CC(=O)O)C(=O)N[C@@H](CC(=O)O)C(=O)N[C@@H](CC(=O)O)C(=O)N[C@@H](CC(=O)O)C(=O)N[C@@H](CCCCN)C(N)=O)NC(=O)[C@H](Cc2c[nH]c3ccccc23)NC(=O)[C@H](CC(C)C)NC(=O)[C@H](CCCNC(=N)N)NC(=O)[C@H](Cc2ccc(O)cc2)NC(=O)[C@H](CC(C)C)NC(=O)[C@H](Cc2c[nH]c3ccccc23)NC(=O)[C@H](CC(C)C)NC(=O)[C@H](CC(=O)O)NC(=O)[C@H](CCCCN)NC(=O)[C@H](CO)NC(=O)[C@H](Cc2ccc(O)cc2)NC(=O)[C@H](CCCCN)NC(=O)[C@H](Cc2ccc(O)cc2)NC1=O (Ac-MCYKYSKDLWLYRLWCGSGSDYKDDDDK-NH2; disulfide 2-16)	0.022	0.502	> 10	
CC[C@H](C)[C@@H]1NC(=O)[C@H](CC(N)=O)NC(=O)[C@H](Cc2ccc(O)cc2)NC(=O)[C@@H](NC(=O)[C@H](CCSC)NC(C)=O)CSSC[C@@H](C(=O)NCC(=O)N[C@@H](CO)C(=O)NCC(=O)N[C@@H](CO)C(=O)N[C@@H](CC(=O)O)C(=O)N[C@@H](Cc2ccc(O)cc2)C(=O)N[C@@H](CCCCN)C(=O)N[C@@H](CC(=O)O)C(=O)N[C@@H](CC(=O)O)C(=O)N[C@@H](CC(=O)O)C(=O)N[C@@H](CC(=O)O)C(=O)N[C@@H](CCCCN)C(N)=O)NC(=O)[C@H](CCC(=O)O)NC(=O)[C@H](CCCNC(=N)N)NC(=O)[C@H](CCCNC(=N)N)NC(=O)[C@H](C(C)C)NC(=O)[C@H](Cc2ccc(O)cc2)NC(=O)[C@H](CCCCN)NC(=O)[C@H](Cc2ccc(O)cc2)NC(=O)[C@H](Cc2c[nH]c3ccccc23)NC(=O)[C@H](Cc2ccc(O)cc2)NC1=O (Ac-MCYNIYWYKYVRRECGSGSDYKDDDDK-NH2; disulfide 2-15)	0.001	0.387	> 10	
CSCC[C@H](NC(C)=O)C(=O)N[C@H]1CSSC[C@@H](C(=O)NCC(=O)N[C@@H](CO)C(=O)NCC(=O)N[C@@H](CO)C(=O)N[C@@H](CC(=O)O)C(=O)N[C@@H](Cc2ccc(O)cc2)C(=O)N[C@@H](CCCCN)C(=O)N[C@@H](CC(=O)O)C(=O)N[C@@H](CC(=O)O)C(=O)N[C@@H](CC(=O)O)C(=O)N[C@@H](CC(=O)O)C(=O)N[C@@H](CCCCN)C(N)=O)NC(=O)[C@@H]2CCCN2C(=O)[C@H](CCC(N)=O)NC(=O)[C@H](Cc2c[nH]c3ccccc23)NC(=O)[C@H](CCC(=O)O)NC(=O)[C@H](CCC(=O)O)NC(=O)[C@H]([C@@H](C)O)NC(=O)[C@H](Cc2c[nH]c3ccccc23)NC(=O)[C@H](Cc2ccccc2)NC(=O)[C@H](CCCNC(=N)N)NC(=O)[C@H]([C@@H](C)O)NC(=O)[C@H](Cc2ccc(O)cc2)NC1=O (Ac-MCYTRFWTEEWQPCGSGSDYKDDDDK-NH2; disulfide 2-14)	> 10	> 10	> 10	
CSCC[C@H](NC(C)=O)C(=O)N[C@H]1CSSC[C@@H](C(=O)NCC(=O)N[C@@H](CO)C(=O)NCC(=O)N[C@@H](CO)C(=O)N[C@@H](CC(=O)O)C(=O)N[C@@H](Cc2ccc(O)cc2)C(=O)N[C@@H](CCCCN)C(=O)N[C@@H](CC(=O)O)C(=O)N[C@@H](CC(=O)O)C(=O)N[C@@H](CC(=O)O)C(=O)N[C@@H](CC(=O)O)C(=O)N[C@@H](CCCCN)C(N)=O)NC(=O)[C@H](CCC(N)=O)NC(=O)[C@H](Cc2c[nH]cn2)NC(=O)[C@H](Cc2c[nH]c3ccccc23)NC(=O)[C@H](CC(C)C)NC(=O)[C@H](C)NC(=O)[C@H](CCC(=O)O)NC(=O)[C@H](Cc2ccc(O)cc2)NC(=O)[C@@H]2CCCN2C(=O)[C@H](Cc2c[nH]cn2)NC(=O)[C@H](CCCNC(=N)N)NC(=O)[C@H]([C@@H](C)O)NC(=O)[C@H](Cc2ccc(O)cc2)NC1=O (Ac-MCYTRHPYEALWHQCGSGSDYKDDDDK-NH2; disulfide 2-15)	> 10	> 10	> 10	
